Data: article PMC12081877 (Nature Communications, 2025)

Key:
[1] = system: a panel of M^pro mutants; format: biochemical, SARS-CoV-2
[2] = system: ISM3312 P18 virus; format: cell-based, SARS-CoV-2

Structure (SMILES) | resistance level [1] | resistance level against the ISM3312 P18 virus [2]
Cn1cnc(Cn2c(=O)[nH]/c(=N\c3cc4cn(C)nc4cc3Cl)n(Cc3cc(F)c(F)cc3F)c2=O)n1 [Ensitrelvir] | moderate- to high-levels resistance | –
CC(C)(C)[C@H](NC(=O)C(F)(F)F)C(=O)N1C[C@H]2[C@@H]([C@H]1C(=O)N[C@H](C#N)C[C@@H]1CCNC1=O)C2(C)C [Nirmatrelvir] | – | no resistance (key: white, no resistance ( < threefold); light blue, low-level resistance (3- to 10-fold); Medium blue, moderate-level resistance (10- to 50-fold); dark blue, high-level resistance ( > 50-fold))
